These results are taken from ChEMBL document CHEMBL1201862, “PubChem BioAssay data set” (2004).

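Five concentrations, 48 hours, 96-well plates. At the GI50, growth is halved.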 Active and inactive are the calls of the source. No stated cut-off is given here; in the data, active = GI50 up to about 1.1 µM and inactive = higher. Some results are limits rather than exact numbers.

Test systems include A549; HCC 2998; KM12; LOX IMVI; M14; MOLT-4; OVCAR-5; SF-295; SF-539; SK-MEL-28; SNB-75; SW-620; UACC-257; UACC-62; UO-31; 786-0; NCI-H522.
What all share (assay): NCI-60 cell line screen, 48 h

For `O=C(Oc1ccc(Cl)cc1[N+](=O)[O-])c1ccccc1`, the GI50 in the assay on A549, with HCC 2998, in the assay on KM12, with LOX IMVI, in the assay with M14 and in the assay on MOLT-4 was > 100 µM (inactive) each time. Besides, the GI50 was 57.1 µM (inactive) in the assay with OVCAR-5; > 100 µM (inactive) with SF-295; > 100 µM (inactive) in the assay on SF-539; > 100 µM (inactive) with SK-MEL-28; 90.8 µM (inactive) in the assay on SNB-75; > 100 µM (inactive) with SW-620. Moreover, the GI50 in the assay with UACC-257 was > 100 µM (inactive); with UACC-62, > 100 µM (inactive); in the assay with UO-31, 86.5 µM (inactive).

For `N=C(N)NS(=O)(=O)c1ccc(NCCc2c3ccccc3nc3ccccc23)cc1`, the GI50 in the assay with 786-0 is > 100 µM (inactive); in the assay on A549 it was > 100 µM (inactive); in the assay on HCC 2998, > 100 µM (inactive); in the assay on KM12, > 100 µM (inactive); in the assay on LOX IMVI it was 70.1 µM (inactive); in the assay with M14, > 100 µM (inactive). In addition, the GI50 was 22.8 µM (inactive) in the assay on MOLT-4; > 100 µM (inactive) in the assay on NCI-H522; > 100 µM (inactive) with OVCAR-5; > 100 µM (inactive) in the assay with SF-295; > 100 µM (inactive) in the assay on SF-539; > 100 µM (inactive) with SK-MEL-28. Moreover, the GI50 in the assay on SNB-75 is > 100 µM (inactive); in the assay on SW-620 it was > 100 µM (inactive); in the assay with UACC-257, 52.5 µM (inactive); with UO-31 it was > 100 µM (inactive).

In the case of `CCCCN(CCCC)c1c([N+](=O)[O-])c(=O)nc2ccccn12`, the GI50 was 34 µM (inactive) with 786-0; 33.7 µM (inactive) in the assay on A549; 31.3 µM (inactive) in the assay on KM12; 27.9 µM (inactive) with M14; 37.7 µM (inactive) in the assay on MOLT-4; 17.6 µM (inactive) in the assay on NCI-H522. The GI50 with OVCAR-5 is 99.3 µM (inactive); with SF-539, 31.4 µM (inactive); in the assay with SK-MEL-28 it was 13.7 µM (inactive); with SNB-75, 30.8 µM (inactive); with SW-620 it was 36.2 µM (inactive); with UACC-62, 36.7 µM (inactive). The GI50 in the assay on UO-31 was 45.6 µM (inactive).

With `CCC12CCCN(Cc3ccccc3)C1c1c(n(C)c3ccccc13)C(CO)C2` (stereo unspecified), the GI50 in the assay on 786-0 is 44.1 µM (inactive); in the assay with A549, 81.8 µM (inactive); in the assay with HCC 2998, 58.1 µM (inactive); with KM12, 40.4 µM (inactive); with LOX IMVI, 41.9 µM (inactive); with MOLT-4, 22.4 µM (inactive). Further, the GI50 in the assay with NCI-H522 was 30.8 µM (inactive); in the assay on OVCAR-5 it was 10.5 µM (inactive); in the assay on SF-295 it was 26.9 µM (inactive); in the assay on SF-539 it was 37.6 µM (inactive); with SK-MEL-28, 61 µM (inactive); in the assay with SW-620, 35.6 µM (inactive). In addition, the results for the GI50 in the assay on UACC-257 and with UACC-62 were 48.6 µM (inactive) and 51.3 µM (inactive), respectively.

With `N#Cc1c2nc3ccccc3nc2n2ccc3ccccc3c12`, the GI50 in the assay on 786-0 was > 100 µM (inactive); with A549, > 100 µM (inactive); in the assay on HCC 2998, > 100 µM (inactive); in the assay with KM12 it was 32.4 µM (inactive); in the assay with M14, > 100 µM (inactive); in the assay with MOLT-4, > 100 µM (inactive). The GI50 with NCI-H522, with OVCAR-5, with SF-295, in the assay on SF-539, in the assay on SK-MEL-28 and with SNB-75 was > 100 µM (inactive) in each case. Also, the GI50 in the assay with UACC-257 and with UO-31 was > 100 µM (inactive) each time.

On to `CC(=O)NC1=C(NCc2ccc(Cl)cc2)C(=O)c2ccccc2C1=O`, for which the GI50 is 8.77 µM (inactive) in the assay on 786-0; 12.5 µM (inactive) with A549; 27.5 µM (inactive) in the assay with HCC 2998; 8.17 µM (inactive) with KM12; 8.2 µM (inactive) with LOX IMVI; 7.01 µM (inactive) with M14. Besides, the GI50 in the assay with MOLT-4 is 2.38 µM (inactive); in the assay on NCI-H522, 0.986 µM (active); with SF-295, 13.3 µM (inactive); in the assay on SF-539, 4.41 µM (inactive); in the assay on SK-MEL-28, 5.5 µM (inactive); in the assay on SNB-75, 7.08 µM (inactive). In addition, the GI50 was 7 µM (inactive) in the assay with SW-620, 6.17 µM (inactive) with UACC-257, 2.61 µM (inactive) in the assay with UACC-62 and 5.15 µM (inactive) with UO-31.

On to `CCOC(=O)NC(=O)c1c[nH]c(=O)[nH]c1=O`, for which the GI50 in the assay on 786-0, in the assay with A549, in the assay on HCC 2998, with KM12, in the assay on LOX IMVI and in the assay with M14 was > 100 µM (inactive) in each case. The GI50 with MOLT-4, in the assay with OVCAR-5, with SF-295, with SF-539, in the assay on SK-MEL-28 and in the assay with SNB-75 was > 100 µM (inactive) in each case. In addition, the GI50 in the assay on SW-620, with UACC-257, in the assay on UACC-62 and with UO-31 was > 100 µM (inactive) in each case.

In the case of `Cc1cccc(NC(=O)c2c(N)[n+]([O-])c3ccccc3[n+]2[O-])c1`, the GI50 with 786-0 was 5.02 µM (inactive); with A549, 16.1 µM (inactive); in the assay with KM12, 14.9 µM (inactive); in the assay with M14 it was 12 µM (inactive); with MOLT-4 it was 4.89 µM (inactive); in the assay on NCI-H522, 6.01 µM (inactive). Further, the GI50 with OVCAR-5 is 26.7 µM (inactive); in the assay with SF-295, 10.9 µM (inactive); in the assay with SF-539, 5.05 µM (inactive); in the assay with SK-MEL-28 it was 8.05 µM (inactive); with SNB-75, 13 µM (inactive); in the assay with SW-620, 8.38 µM (inactive). The GI50 was 11.3 µM (inactive) with UACC-257 and 18.4 µM (inactive) in the assay on UO-31.

On to `O=[N+]([O-])c1ccc(NC2OCC(O)C(O)C2O)cc1` (stereo unspecified), for which the GI50 in the assay with 786-0, with A549, in the assay on HCC 2998, in the assay on KM12, with LOX IMVI and in the assay on M14 was > 100 µM (inactive) each time. Also, the GI50 in the assay on MOLT-4, in the assay with NCI-H522, with SF-295, with SF-539, in the assay with SK-MEL-28 and in the assay on SNB-75 was > 100 µM (inactive) each time. Besides, the GI50 in the assay with SW-620, in the assay with UACC-257, in the assay with UACC-62 and with UO-31 was > 100 µM (inactive) throughout.

Consider `COc1cc2ccc(CC#N)cc2cc1OC`, for which the GI50 with 786-0, in the assay on A549, in the assay on KM12, in the assay with LOX IMVI, in the assay with MOLT-4 and in the assay with OVCAR-5 was > 100 µM (inactive) each time. Further, the GI50 in the assay on SF-295, in the assay on SF-539, in the assay on SK-MEL-28, in the assay on SW-620, in the assay with UACC-257 and in the assay on UO-31 was > 100 µM (inactive) each time.

For the compound `N#Cc1cccc(/C=N/N/C(N)=N/O)c1`, the GI50 is > 100 µM (inactive) with 786-0; 24.9 µM (inactive) in the assay with A549; 52.7 µM (inactive) with KM12; 21.2 µM (inactive) in the assay on LOX IMVI; 41.4 µM (inactive) in the assay on M14; 21.6 µM (inactive) with NCI-H522. The GI50 in the assay with OVCAR-5 was > 100 µM (inactive); with SF-295, > 100 µM (inactive); with SF-539, > 100 µM (inactive); with SK-MEL-28, > 100 µM (inactive); with SNB-75, 14.8 µM (inactive); in the assay with SW-620, > 100 µM (inactive). For the same compound, the results for the GI50 with UACC-257, with UACC-62 and in the assay with UO-31 were > 100 µM (inactive), 13 µM (inactive) and 49.1 µM (inactive), respectively.

With `CCOC(=O)CC(=O)ON(C)C(C)=O`, the GI50 in the assay with 786-0, in the assay on A549, in the assay with HCC 2998, with KM12, in the assay with LOX IMVI and with M14 was > 100 µM (inactive) each time. The GI50 with MOLT-4, in the assay with NCI-H522, with OVCAR-5, in the assay on SF-295, in the assay on SF-539 and with SW-620 was > 100 µM (inactive) in each case. The GI50 with UACC-257, in the assay with UACC-62 and in the assay on UO-31 was > 100 µM (inactive) each time.

As for `c1ccc(C(c2ccccc2)c2cccnc2)cc1`, the GI50 is > 100 µM (inactive) in the assay on 786-0; 88.1 µM (inactive) in the assay with A549; > 100 µM (inactive) in the assay on HCC 2998; > 100 µM (inactive) in the assay on KM12; > 100 µM (inactive) with LOX IMVI; > 100 µM (inactive) in the assay on M14. In addition, the GI50 was > 100 µM (inactive) in the assay on OVCAR-5; > 100 µM (inactive) with SF-295; > 100 µM (inactive) in the assay with SF-539; > 100 µM (inactive) with SK-MEL-28; 69 µM (inactive) with SNB-75; > 100 µM (inactive) in the assay on SW-620. Moreover, the figures for the GI50 in the assay with UACC-257, in the assay with UACC-62 and with UO-31 were > 100 µM (inactive), > 100 µM (inactive) and 97.9 µM (inactive), respectively.
